The values below come from ChEMBL document CHEMBL2086273, “Significant activity of ecdysteroids on the resistance to doxorubicin in mammalian cancer cells expressing the human ABCB1 transporter” (J Med Chem, 2012).

Assay type in all cases: cell-based
Data set [1] concerns the target T1, ATP-dependent translocase ABCB1 (Homo sapiens, UniProt P08183). As to the kind of experiment: Inhibition of human ABCB1 pump expressed in mouse L5178 cells assessed as fluorescence activity ratio at 20 uM for 10 mins by flow cytometry relative to control. The note with it: l5178, 10 min.
Data set [2] addresses T1, ATP-dependent translocase ABCB1. As to the kind of experiment: Inhibition of human ABCB1 expressed in mouse L5178 cells assessed as 95% inhibition of cell proliferation at compound-doxorubicin ratio of 20.4:1 after 48 hrs by MTT assay. The note with it: l5178, 48 h.
The target is the same in data set [3]. As to the kind of experiment: Inhibition of human ABCB1 expressed in mouse L5178 cells assessed as 75% inhibition of cell proliferation at compound-doxorubicin ratio of 20.4:1 after 48 hrs by MTT assay. Particulars: l5178, 48 h.
Data set [4] has the same target. As to the kind of experiment: Inhibition of human ABCB1 expressed in mouse L5178 cells assessed as 50% inhibition of cell proliferation at compound-doxorubicin ratio of 20.4:1 after 48 hrs by MTT assay. The note with it: l5178, 48 h.

T1 sequence (P08183 whole entry): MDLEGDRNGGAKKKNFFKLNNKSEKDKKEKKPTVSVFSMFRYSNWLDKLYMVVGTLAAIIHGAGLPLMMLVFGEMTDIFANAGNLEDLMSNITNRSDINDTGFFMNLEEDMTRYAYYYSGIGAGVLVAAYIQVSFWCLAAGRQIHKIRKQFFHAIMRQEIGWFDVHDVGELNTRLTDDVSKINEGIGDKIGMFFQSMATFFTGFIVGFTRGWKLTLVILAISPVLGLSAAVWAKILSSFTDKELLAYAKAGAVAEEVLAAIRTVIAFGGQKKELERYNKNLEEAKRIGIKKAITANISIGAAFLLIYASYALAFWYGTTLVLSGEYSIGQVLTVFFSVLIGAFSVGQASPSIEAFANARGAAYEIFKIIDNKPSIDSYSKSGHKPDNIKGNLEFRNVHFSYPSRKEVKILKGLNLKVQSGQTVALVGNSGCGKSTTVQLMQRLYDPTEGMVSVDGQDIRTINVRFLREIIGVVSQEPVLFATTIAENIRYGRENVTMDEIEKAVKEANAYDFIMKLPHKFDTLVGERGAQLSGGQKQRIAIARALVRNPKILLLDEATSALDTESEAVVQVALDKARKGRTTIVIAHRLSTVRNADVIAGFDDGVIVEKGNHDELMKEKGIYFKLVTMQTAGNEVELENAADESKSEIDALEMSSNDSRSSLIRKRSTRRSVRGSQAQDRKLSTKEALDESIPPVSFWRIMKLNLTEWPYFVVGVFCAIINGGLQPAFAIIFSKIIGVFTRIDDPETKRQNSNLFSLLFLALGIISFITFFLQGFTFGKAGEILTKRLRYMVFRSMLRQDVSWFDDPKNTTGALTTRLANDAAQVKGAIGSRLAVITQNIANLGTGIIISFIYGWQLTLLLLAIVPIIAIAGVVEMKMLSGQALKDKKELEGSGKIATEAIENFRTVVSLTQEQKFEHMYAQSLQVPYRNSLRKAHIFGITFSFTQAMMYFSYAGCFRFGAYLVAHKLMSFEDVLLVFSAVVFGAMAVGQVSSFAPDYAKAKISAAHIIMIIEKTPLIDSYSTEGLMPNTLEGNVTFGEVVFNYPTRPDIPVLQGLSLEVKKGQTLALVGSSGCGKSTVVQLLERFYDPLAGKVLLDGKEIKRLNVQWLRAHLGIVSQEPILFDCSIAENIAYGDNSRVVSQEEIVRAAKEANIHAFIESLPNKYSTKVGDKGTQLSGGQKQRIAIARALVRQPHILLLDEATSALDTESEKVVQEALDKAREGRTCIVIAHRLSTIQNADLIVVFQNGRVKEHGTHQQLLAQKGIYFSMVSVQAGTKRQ

For `CC(C)(O)CC[C@H]1OC(C)(C)O[C@]1(C)[C@H]1CC[C@@]2(O)C3=CC(=O)[C@@H]4C[C@@H](O)CC[C@]4(C)[C@H]3CC[C@]12C`, the Ratio in data set [1] was 7.01. Besides, the entries for the “fractional inhibitory concentration index (FICI)” value in data set [2], in data set [3] and in data set [4] were 0.091, 0.28 and 0.88, respectively.
Consider `CC(C)(O)CC[C@H]1OC(C)(C)O[C@]1(C)[C@H]1CC[C@@]2(O)C3=CC(=O)[C@@H]4C[C@@H](O)[C@@H](O)C[C@]4(C)[C@H]3CC[C@]12C`, for which, in data set [1], the Ratio was determined as 1.53. The “fractional inhibitory concentration index (FICI)” value was 0.35 in data set [2], 0.54 in data set [3] and 0.84 in data set [4].
In the case of `CC(C)CC[C@H]1OC(C)(C)O[C@]1(C)[C@H]1CC[C@@]2(O)C3=CC(=O)[C@@H]4C[C@H]5OC(C)(C)O[C@H]5C[C@]4(C)C3=CC[C@]12C`, the Ratio in data set [1] is recorded as 41.15. Besides, the figures for the “fractional inhibitory concentration index (FICI)” value in data set [2], in data set [3] and in data set [4] were 0.1, 0.14 and 0.19, respectively.
The like results for `CC(=O)O[C@H]1CC[C@@]2(C)[C@@H](C1)C(=O)C=C1[C@@H]2CC[C@]2(C)[C@@H]([C@H](C)[C@@H](CCC(C)(C)O)OC(C)=O)CC[C@@]12O` were, in that order, 0.97, 0.5, 0.86 and 1.5.
In the same order, the values of `CC(=O)O[C@H]1C[C@@]2(C)[C@@H](C[C@H]1OC(C)=O)C(=O)C=C1[C@@H]2CC[C@]2(C)[C@@H]([C@@](C)(O)[C@@H](CCC(C)(C)OC(C)=O)OC(C)=O)CC[C@@]12O` are 8.55, 0.13, 0.29 and 0.73.
`CC(C)(O)CC[C@H]1OC(C)(C)O[C@]1(C)[C@H]1CC[C@@]2(O)C3=CC(=O)[C@@H]4C[C@@H](O)[C@H]5OC(C)(C)O[C@H]5[C@]4(C)[C@H]3CC[C@]12C`: in data set [1], the Ratio is reported as 2.43. Further, the “fractional inhibitory concentration index (FICI)” value in data set [2] is recorded as 0.28; in data set [3], 0.42; in data set [4] it was 0.66.
The like results for `CC(C)CC[C@H]1OC(C)(C)O[C@]1(C)[C@H]1CC[C@@]2(O)C3=CC(=O)[C@@H]4C[C@H]5OC(C)(C)O[C@H]5C[C@]4(C)[C@H]3[C@H](O)C[C@]12C` were, in that order, 46.49, 0.12, 0.14 and 0.18.
As to `CC[C@H](C[C@H]1OC(C)(C)O[C@]1(C)[C@H]1CC[C@@]2(O)C3=CC(=O)[C@@H]4C[C@H]5OC(C)(C)O[C@H]5C[C@]4(C)[C@H]3CC[C@]12C)C(C)(C)O`, the Ratio in data set [1] stood at 26.53. The “fractional inhibitory concentration index (FICI)” value is 0.068 in data set [2], 0.11 in data set [3] and 0.19 in data set [4].
For `CC1(CC[C@H]2OC(C)(C)O[C@]2(C)[C@H]2CC[C@@]3(O)C4=CC(=O)[C@@H]5C[C@H]6OC(C)(C)O[C@H]6C[C@]5(C)[C@H]4CC[C@]23C)COC(C)(C)O1` (stereo partly specified), in data set [1], the Ratio was 24.39. Also, the “fractional inhibitory concentration index (FICI)” value came out at 0.12 in data set [2], 0.16 in data set [3] and 0.23 in data set [4].
